Data on ten compounds can be found in ChEMBL document CHEMBL4627257, “Targeting the DNA damage response (DDR) by natural compounds” (Bioorg Med Chem, 2020).

Structures are written as SMILES. Calls of active or inactive are those of the source. The calls are words filed in the database; no cut-off is given here. Where only a bound is given, the exact number is not on record here.

The subject of series [1] is SU.86.86. As to the kind of experiment: Induction of DNA damage in human SU8686 cells assessed as tail DNA formation at IC50 by alkaline Comet assay. The class given is functional, cell-based.
Series [2] deals with SU.86.86. Description: Induction of DNA damage in human SU8686 cells assessed as increase in gammaH2AX phosphorylation at […] at cytotoxic IC50 incubated for 24 hrs by fluorometry method. Format: functional.
The test system of series [3] is SU.86.86. Description: Induction of DNA damage in human SU8686 cells assessed as increase gammaH2AX protein level at IC50 for 24 hrs in presence of 5 uM cisplatin by western blot analysis. The class given is functional, cell-based. A general note: Immunoblotting shows a protein as a band on a membrane.
Series [4] has as its system SU.86.86. As to the kind of experiment: Induction of DNA damage in human SU8686 cells assessed as increase gammaH2AX protein level at IC50 for 24 hrs in presence of 0.3 uM doxorubicin by western blot analysis. Format: functional, cell-based.
In series [5] the test system is SU.86.86. As to the kind of experiment: Induction of DNA damage in human SU8686 cells assessed as increase in gammaH2AX nuclear foci under basal condition at IC50 by fluorometry method. Format: functional, cell-based.
The test system of series [6] is SU.86.86. Description: Cytotoxicity against human SU8686 cells assessed as cell viability after 72 hrs incubated with resazurin sodium salt by Alamar blue assay. The class given is functional.
For series [7], the system named is SU.86.86. Description: Induction of DNA damage in human SU8686 cells assessed as increase in gammaH2AX phosphorylation at […] at cytotoxic IC50 in presence of 5 uM cisplatin by fluorometry method. Format: functional.
The test system of series [8] is BXPC-3. Description: Cytotoxicity against human BxPC3 cells assessed as cell viability after 72 hrs incubated with resazurin sodium salt by Alamar blue assay. Format: functional. On the technique in general: Alamar Blue is a resazurin reagent that responds to reducing activity.
Series [9] relates to SU.86.86. As to the kind of experiment: Induction of DNA damage in human SU8686 cells assessed as increase in gammaH2AX phosphorylation at […] at cytotoxic IC50 in presence of 0.3 uM doxorubicin by fluorometry method. The class given is functional.
Series [10] deals with SU.86.86. Description: Induction of DNA damage in human SU8686 cells assessed as increase gammaH2AX protein level at IC50 for 24 hrs by western blot analysis. Format: functional, cell-based.
Series [11] deals with SU.86.86. As to the kind of experiment: Induction of DNA damage in human SU8686 cells assessed as tail DNA formation at IC50 in presence of 5 uM cisplatin by alkaline Comet assay. Format: functional, cell-based.
Series [12] is described as follows: Drug uptake in human SU8686 cells assessed as increase in doxorubicin uptake by flow cytometry analysis. Format: ADME, cell-based. The note with it: su.86.86.

For the compound `CCCCC/C=C/C(=O)[C@H]1C(=O)O[C@@]2(C)C(=O)C(C=O)=C3C=C(C)OC=C3[C@H]12`, the outcome in [1] and in [3] was Active. In addition, the Activity in series [2] is given as >30%.
Turning to `COC(=O)C[C@@H]1Cc2cc3c(-c4c(OC)cc(O)c5c(O)c6c(cc45)C[C@@H](CC(=O)OC)OC6=O)c(OC)cc(O)c3c(O)c2C(=O)O1`, the result in [1], in series [4], in series [5] and in [3] was Active.
For `CC(C)=CCC/C(C)=C/CC/C(C)=C/CC/C(C)=C/CC/C(C)=C/CC/C(C)=C/Cc1cc(O)ccc1O`, the result in series [1] and in [5] was Active.
Turning to `COC(=O)[C@@]12Oc3ccc(-c4ccc5c(c4O)C(=O)C4=C(O)C[C@H](C)[C@H](O)[C@]4(C(=O)OC)O5)c(O)c3C(=O)C1=C(O)C[C@H](C)[C@H]2O`, the Activity is 3 µM in series [6]; >20% in series [7]; >30% in [2]; 2.5 µM in series [8]; >20% in [9]. The result in [1], in [5] and in [3] was Active.
Regarding `C/C=C(\C)[C@H]1[C@@H](/C=C/C=C(\C)[C@@H](O)[C@@H](C)CO)[C@@H]2C[C@@H](OC(=O)Cc3ccccc3)[C@](C)(O)C[C@H]2[C@@H]2O[C@@]21C`, the result in series [1] and in [5] was Active. Further, the Activity in [9] was >20%.
Take `C=C1CCC[C@H]2[C@](C)(CC3=C(O)C(=O)C=C(OC)C3=O)[C@@H](C)CC[C@@]12C`: the result in series [1], in [10], in series [4], in series [5] and in series [3] was Active. The Activity is listed as >20% in series [7], >30% in series [2] and >20% in series [9].
Regarding `CC(C)[C@H]1OC(=O)[C@H](Cc2ccccc2)N(C)C(=O)[C@@H](C(C)C)OC(=O)[C@H](Cc2ccccc2)N(C)C(=O)[C@@H](C(C)C)OC(=O)[C@H](Cc2ccccc2)N(C)C1=O`, the outcome in [1], in series [5] and in series [3] was Active.
For `CC1=CCC[C@H]2[C@@](C)(CC3=C(O)C(=O)C=C(NCCc4ccccc4)C3=O)[C@@H](C)CC[C@@]12C`, the outcome in [1], in [10], in series [11] and in series [5] was Active. The values for the Activity in series [7] and in [2] were >20% and >30%, respectively. For the same compound, the Drug uptake entry in series [12] is on record as “Active”.
Turning to `Cc1cc(O)cc2c1Oc1cc(O)cc(C)c1C(=O)O2`, the Activity in series [7] and in series [9] was >20% each time.
Turning to `CC(C)[C@@H]1OC(=O)[C@@H](Cc2ccc(O)cc2)N(C)C(=O)[C@H](C(C)C)OC(=O)[C@@H](Cc2ccccc2)N(C)C(=O)[C@H](C(C)C)OC(=O)[C@@H](Cc2ccccc2)N(C)C1=O`, the outcome in series [1], in [11] and in series [3] was Active. The Activity in series [2] is recorded as >30%.
